In US20110044938A1 (NYCOMED GMBH, priority 2006, published 2011):

What was measured:
[1] = system: RKO (RKOp27) human colon adenocarcinoma cells; assay: Alamar Blue cell viability assay, anti-proliferative/cytotoxic activity on proliferating RKO subclones; format: cell-based; details: RKOp27, 72 h, RKO p27 uninduced (proliferating) cells, value = class bound given in Table A, read-out: −logIC50 RKO p27 uninduced (proliferating) (converted)
How it was run: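 Alamar Blue fluorescence (ex 544, em 590 nm) after 72 h compound exposure at 37 °C, 5% CO2, normalised to untreated controls set at 100%. Cells were seeded at 5000 per well and dosed 24 h later with serial semi-logarithmic dilutions in 10% FCS DMEM, four replicates each. −log IC50 [mol/l] was derived from concentration-effect curves.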

[2] = system: subclones of RKO colon adenocarcinoma cells (RKOp27 or RKOp21) arrested by Ponasterone A; assay: Alamar Blue cell viability assay, cell cycle specific mode of action: cells arrested by ectopic p27Kip1 induced by Ponasterone A versus proliferating cells; format: cell-based; details: Homo sapiens, RKO p27 induced (arrested) cells, 10 μM Ponasterone A, 72 hours, value = class bound given in Table A, read-out: −logIC50 RKO p27 induced (arrested) (converted)
How it was run: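 Viability of proliferating versus Ponasterone A (10 μM)-arrested RKOp27/RKOp21 cells after 72 h compound exposure at 37° C, in quadruplicate. Read-out is Alamar Blue fluorescence (544/590 nm) normalised to untreated cells = 100%; values as −log IC50.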

Compound	IC50 [2] [nM]	IC50 [1] [nM]
CCOc1ccccc1CCC(=O)Nc1sc2c(c1C#N)CCC(COC(=O)N1CCOCC1)C2 (stereo not shown) [Example 216, Morpholine-4-carboxylic acid 3-cyano-2-[3-(2-ethoxy-phenyl)-propanoylamino]-4,5,6,7-tetrahydro-benzo[b]thiophen-6-ylmethyl ester]	≥ 100000	≤ 501
COCCOC(=O)OC1CCc2c(sc(NC(=O)CCc3cccc(OC)c3)c2C#N)C1 (stereo not shown) [Example 217, Carbonic acid 3-cyano-2-[3-(3-methoxy-phenyl)-propanoylamino]-4,5,6,7-tetrahydro-benzo[b]thiophen-6-yl ester 2-methoxy-ethyl ester]	≥ 100000	501 to 2000
COc1cccc(CCC(=O)Nc2sc3c(c2C#N)CCC(OC(=O)OCc2cccnc2)C3)c1 (stereo not shown) [Example 219, Carbonic acid 3-cyano-2-[3-(3-methoxy-phenyl)-propanoylamino]-4,5,6,7-tetrahydro-benzo[b]thiophen-6-yl ester pyridin-3-ylmethyl ester]	≥ 100000	501 to 2000
COc1cccc(CCC(=O)Nc2sc3c(c2C#N)CCC(OC(=O)NCC2CCOCC2)C3)c1 (stereo not shown) [Example 220]	≥ 100000	501 to 2000
COc1cccc(CCC(=O)Nc2sc3c(c2C#N)CCC(OC(=O)NCC2CCCO2)C3)c1 (stereo not shown) [Example 225, (Tetrahydro-furan-2-ylmethyl)-carbamic acid 3-cyano-2-[3-(3-methoxy-phenyl)-propanoylamino]-4,5,6,7-tetrahydro-benzo[b]thiophen-6-yl ester]	≥ 100000	501 to 2000
COc1cccc(CCC(=O)Nc2sc3c(c2C#N)CCC(OC(=O)N2CCOCC2)C3)c1 (stereo not shown) [Example 231, Morpholine-4-carboxylic acid 3-cyano-2-[3-(3-methoxy-phenyl)-propanoylamino]-4,5,6,7-tetrahydro-benzo[b]thiophen-6-yl ester]	≥ 100000	≤ 501
CNC(=O)OCC1CCc2c(sc(NC(=O)CCc3cccc(OC)c3)c2C#N)C1 (stereo not shown) [Example 233, Methyl-carbamic acid 3-cyano-2-[3-(3-methoxy-phenyl)-propanoylamino]-4,5,6,7-tetrahydro-benzo[b]thiophen-6-ylmethyl ester]	≥ 100000	≤ 501
COCCNC(=O)OCC1CCc2c(sc(NC(=O)CCc3cccc(OC)c3)c2C#N)C1 (stereo not shown) [Example 234, (2-Methoxy-ethyl)-carbamic acid 3-cyano-2-[3-(3-methoxy-phenyl)-propanoylamino]-4,5,6,7-tetrahydro-benzo[b]thiophen-6-ylmethyl ester]	≥ 100000	≤ 501
COc1cccc(CCC(=O)Nc2sc3c(c2C#N)CCC(COC(=O)NCc2ccccn2)C3)c1 (stereo not shown) [Example 235, Pyridin-2-ylmethyl-carbamic acid 3-cyano-2-[3-(3-methoxy-phenyl)-propanoylamino]-4,5,6,7-tetrahydro-benzo[b]thiophen-6-ylmethyl ester]	≥ 100000	501 to 2000
COc1cccc(CCC(=O)Nc2sc3c(c2C#N)CCC(COC(=O)NCCn2ccnc2)C3)c1 (stereo not shown) [Example 236, (2-Imidazol-1-yl-ethyl)-carbamic acid 3-cyano-2-[3-(3-methoxy-phenyl)-propanoylamino]-4,5,6,7-tetrahydro-benzo[b]thiophen-6-ylmethyl ester]	≥ 100000	501 to 2000
COc1cccc(CCC(=O)Nc2sc3c(c2C#N)CCC(COC(=O)NCc2cnn(C)c2)C3)c1 (stereo not shown) [Example 239, (1-Methyl-1H-pyrazol-4-ylmethyl)-carbamic acid 3-cyano-2-[3-(3-methoxy-phenyl)-propanoylamino]-4,5,6,7-tetrahydro-benzo[b]thiophen-6-ylmethyl ester]	≥ 100000	≤ 501
COc1cccc(CCC(=O)Nc2sc3c(c2C#N)CCC(COC(=O)NCc2cc(C)on2)C3)c1 (stereo not shown) [Example 240, (5-Methyl-isoxazol-3-ylmethyl)-carbamic acid 3-cyano-2-[3-(3-methoxy-phenyl)-propanoylamino]-4,5,6,7-tetrahydro-benzo[b]thiophen-6-ylmethyl ester]	≥ 100000	≤ 501
COc1cccc(CCC(=O)Nc2sc3c(c2C#N)CCC(COC(=O)NCC2CCCO2)C3)c1 (stereo not shown) [Example 241, (Tetrahydro-furan-2-ylmethyl)-carbamic acid 3-cyano-2-[3-(3-methoxy-phenyl)-propanoylamino]-4,5,6,7-tetrahydro-benzo[b]thiophen-6-ylmethyl ester]	≥ 100000	501 to 2000

Further lines, with some results ahead:

IC50 [2] [nM]	Compound	IC50 [1] [nM]
≥ 100000	COCCNC(=O)OC1CCc2c(sc(NC(=O)CCc3cccc(OC)c3)c2C#N)C1 (stereo not shown) [Example 218, (2-Methoxy-ethyl)-carbamic acid 3-cyano-2-[3-(3-methoxy-phenyl)-propanoylamino]-4,5,6,7-tetrahydro-benzo[b]thiophen-6-yl ester]	≤ 501
≥ 100000	COc1cccc(CCC(=O)Nc2sc3c(c2C#N)CCC(OC(=O)NCc2ccnn2C)C3)c1 (stereo not shown) [Example 221, (2-Methyl-2H-pyrazol-3-ylmethyl)-carbamic acid 3-cyano-2-[3-(3-methoxy-phenyl)-propanoylamino]-4,5,6,7-tetrahydro-benzo[b]thiophen-6-yl ester]	≤ 501
≥ 100000	COc1cccc(CCC(=O)Nc2sc3c(c2C#N)CCC(OC(=O)NCc2cn(C)cn2)C3)c1 (stereo not shown) [Example 222, (1-Methyl-1H-imidazol-4-ylmethyl)-carbamic acid 3-cyano-2-[3-(3-methoxy-phenyl)-propanoylamino]-4,5,6,7-tetrahydro-benzo[b]thiophen-6-yl ester]	501 to 2000
≥ 100000	COc1cccc(CCC(=O)Nc2sc3c(c2C#N)CCC(OC(=O)NCc2cnn(C)c2)C3)c1 (stereo not shown) [Example 223, (1-Methyl-1H-pyrazol-4-ylmethyl)-carbamic acid 3-cyano-2-[3-(3-methoxy-phenyl)-propanoylamino]-4,5,6,7-tetrahydro-benzo[b]thiophen-6-yl ester]	≤ 501
≥ 100000	COc1cccc(CCC(=O)Nc2sc3c(c2C#N)CCC(OC(=O)NCc2cc(C)on2)C3)c1 (stereo not shown) [Example 224, (5-Methyl-isoxazol-3-ylmethyl)-carbamic acid 3-cyano-2-[3-(3-methoxy-phenyl)-propanoylamino]-4,5,6,7-tetrahydro-benzo[b]thiophen-6-yl ester]	501 to 2000
≥ 100000	COc1cccc(CCC(=O)Nc2sc3c(c2C#N)CCC(OC(=O)NCc2cc(C)nn2C)C3)c1 (stereo not shown) [Example 226, (2,5-Dimethyl-2H-pyrazol-3-ylmethyl)-carbamic acid 3-cyano-2-[3-(3-methoxy-phenyl)-propanoylamino]-4,5,6,7-tetrahydro-benzo[b]thiophen-6-yl ester]	≤ 501
≥ 100000	COc1cccc(CCC(=O)Nc2sc3c(c2C#N)CCC(OC(=O)NCc2cnoc2C)C3)c1 (stereo not shown) [Example 227, (5-Methyl-isoxazol-4-ylmethyl)-carbamic acid 3-cyano-2-[3-(3-methoxy-phenyl)-propanoylamino]-4,5,6,7-tetrahydro-benzo[b]thiophen-6-yl ester]	≤ 501
≥ 100000	COc1cccc(CCC(=O)Nc2sc3c(c2C#N)CCC(OC(=O)NCc2conc2C)C3)c1 (stereo not shown) [Example 228, (3-Methyl-isoxazol-4-ylmethyl)-carbamic acid 3-cyano-2-[3-(3-methoxy-phenyl)-propanoylamino]-4,5,6,7-tetrahydro-benzo[b]thiophen-6-yl ester]	≤ 501
≥ 100000	COc1cccc(CCC(=O)Nc2sc3c(c2C#N)CCC(OC(=O)NCc2ccno2)C3)c1 (stereo not shown) [Example 229, Isoxazol-5-ylmethyl-carbamic acid 3-cyano-2-[3-(3-methoxy-phenyl)-propanoylamino]-4,5,6,7-tetrahydro-benzo[b]thiophen-6-yl ester]	501 to 2000
≥ 100000	COc1cccc(CCC(=O)Nc2sc3c(c2C#N)CCC(OC(=O)NCc2cc(C)no2)C3)c1 (stereo not shown) [Example 230, (3-Methyl-isoxazol-5-ylmethyl)-carbamic acid 3-cyano-2-[3-(3-methoxy-phenyl)-propanoylamino]-4,5,6,7-tetrahydro-benzo[b]thiophen-6-yl ester]	501 to 2000
≥ 100000	COc1cccc(CCC(=O)Nc2sc3c(c2C#N)CCC(OC(=O)NCc2csc(C)n2)C3)c1 (stereo not shown) [Example 232, (2-Methyl-thiazol-4-ylmethyl)-carbamic acid 3-cyano-2-[3-(3-methoxy-phenyl)-propanoylamino]-4,5,6,7-tetrahydro-benzo[b]thiophen-6-yl ester]	501 to 2000
≥ 100000	COc1cccc(CCC(=O)Nc2sc3c(c2C#N)CCC(COC(=O)NCc2ccnn2C)C3)c1 (stereo not shown) [Example 237, (2-Methyl-2H-pyrazol-3-ylmethyl)-carbamic acid 3-cyano-2-[3-(3-methoxy-phenyl)-propanoylamino]-4,5,6,7-tetrahydro-benzo[b]thiophen-6-ylmethyl ester]	501 to 2000
≥ 100000	COc1cccc(CCC(=O)Nc2sc3c(c2C#N)CCC(COC(=O)NCc2cn(C)cn2)C3)c1 (stereo not shown) [Example 238, (1-Methyl-1H-imidazol-4-ylmethyl)-carbamic acid 3-cyano-2-[3-(3-methoxy-phenyl)-propanoylamino]-4,5,6,7-tetrahydro-benzo[b]thiophen-6-ylmethyl ester]	501 to 2000
